# PMC5957078 (Journal of medicinal chemistry, 2016)
# Like-named read-outs stand apart in the source and are kept apart here.
# How the values were obtained:
# [1] = tested on: E. coli ARS108 (Extended Spectrum Beta Lactamase); assay: Antibiotic susceptibility with and without 6d, broth microdilution; format: cell-based, Escherichia coli
# [2] = tested on: E. coli G28 (beta lactamase); assay: microbe, parasite or virus in culture; format: cell-based; details: Escherichia coli
# S. aureus C1BP13 (MRSA) = assay: Antibiotic susceptibility with and without 6d, broth microdilution; format: cell-based; details: Staphylococcus aureus
# E. coli DNA-gyrase = E. coli DNA-gyrase (Escherichia coli, UniProt P0AES6); assay: biochemical; format: biochemical; details: for inhibition of DNA-gyrase: at the highest tested concentrations
# [3] = target: T1, serine/threonine kinase IreK (Enterococcus faecalis, UniProt Q820A8); assay: biochemical
# T1 sequence (Q820A8 1-718): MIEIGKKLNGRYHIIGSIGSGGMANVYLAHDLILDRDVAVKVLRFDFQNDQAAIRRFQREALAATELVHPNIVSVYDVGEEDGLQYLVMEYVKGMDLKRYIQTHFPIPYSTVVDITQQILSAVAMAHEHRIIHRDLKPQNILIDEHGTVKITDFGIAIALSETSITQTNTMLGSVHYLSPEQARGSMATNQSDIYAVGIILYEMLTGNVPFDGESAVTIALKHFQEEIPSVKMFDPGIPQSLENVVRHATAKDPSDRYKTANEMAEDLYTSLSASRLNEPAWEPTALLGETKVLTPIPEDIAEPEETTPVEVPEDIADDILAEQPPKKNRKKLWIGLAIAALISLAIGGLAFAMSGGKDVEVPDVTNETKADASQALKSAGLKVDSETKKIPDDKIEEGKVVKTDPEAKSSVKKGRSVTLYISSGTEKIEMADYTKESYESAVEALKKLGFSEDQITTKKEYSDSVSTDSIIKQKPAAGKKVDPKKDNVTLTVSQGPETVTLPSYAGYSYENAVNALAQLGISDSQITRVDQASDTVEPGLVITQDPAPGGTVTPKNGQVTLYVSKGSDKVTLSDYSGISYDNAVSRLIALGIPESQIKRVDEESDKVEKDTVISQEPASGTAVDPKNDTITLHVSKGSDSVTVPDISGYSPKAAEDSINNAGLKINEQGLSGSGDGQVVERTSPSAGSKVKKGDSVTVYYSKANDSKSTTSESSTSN
# [4] = tested on: resistant isolates (E. coli and S. aureus); format: cell-based
# MRSA TCH1516 USA300 = details: for diameter of the ring of growth inhibition: 20 μg of compound per disk; for growth inhibition, disk diffusion: 100 μg per disk
# B. subtilis JH642 = assay: Growth curves to distinguish bactericidal from bacteriostatic activity; format: cell-based, Bacillus subtilis; details: for bactericidal or bacteriostatic: 50 μg/ml added at OD600 0.5-0.6; for cell lysis in growing culture: 50 μg/ml, time course of 9 h, compared with vancomycin
# [5] = tested on: E. coli ATCC25922 (quality control strain); assay: Antibiotic susceptibility, broth microdilution; format: cell-based; details: Escherichia coli
# [6] = tested on: E. coli G02 (ofloxacin-resistant); assay: Antibiotic susceptibility with and without 6d, broth microdilution; format: cell-based, Escherichia coli; details: for MBC / MIC: Escherichia coli
# [7] = tested on: S. aureus C1P15 (penicillinase); assay: microbe, parasite or virus in culture; format: cell-based; details: Staphylococcus aureus
# Gyrase B = details: ligand of complex PDB: 3TTZ; cited from earlier work
# [8] = Escherichia coli, 144 h, read-out: MBC [with 6d]
# [9] = Escherichia coli, 144 h, read-out: MIC [with 6d]
structure (smiles),measurement,setting,value
"CC1(C)S[C@@H]2[C@H](NC(=O)[C@H](N)c3ccc(O)cc3)C(=O)N2[C@H]1C(=O)O [AMX, amoxicillin]",MBC,[1]; Escherichia coli,> 16 µg/mL
same,MIC,[1]; Escherichia coli,> 16 µg/mL
same,MBC,[1]; [8],> 16 µg/mL
same,MIC,[1]; [9],0.03 µg/mL
same,MBC,[2],> 16 µg/mL
same,MIC,[2],> 16 µg/mL
same,MBC,"[2]; 144 h, read-out: MBC [with 6d]",8 µg/mL
"Cc1onc(-c2ccccc2Cl)c1C(=O)N[C@@H]1C(=O)N2[C@@H]1SC(C)(C)[C@@H]2C(=O)O [CLX, cloxacillin]",MBC,S. aureus C1BP13 (MRSA),> 8 µg/mL
same,MIC,S. aureus C1BP13 (MRSA),> 8 µg/mL
same,MBC,"S. aureus C1BP13 (MRSA); 144 h, read-out: MBC [with 6d]",> 8 µg/mL
same,MIC,"S. aureus C1BP13 (MRSA); 144 h, read-out: MIC [with 6d]",< 0.015 µg/mL
"CO/N=C(\C(=O)N[C@@H]1C(=O)N2C(C(=O)O)=C(COC(C)=O)CS[C@H]12)c1csc(N)n1 [CTX, cefotaxime]",MIC,"[1]; ARS108, antibiotic alone",> 8 µg/mL
same,MIC [with 6d],"[1]; ARS108, with 6d at 50μg/mL",< 0.03 µg/mL
same,MBC,[1]; Escherichia coli,> 8 µg/mL
same,MIC,[1]; Escherichia coli,> 16 µg/mL
same,MBC,[1]; [8],> 8 µg/mL
same,MIC,[1]; [9],0.03 µg/mL
same,MIC,[2],> 16 µg/mL
"Nc1ccc(-c2ccc([N+](=O)[O-])s2)cc1 [Compound 6c, 4-(5-nitro-2-thienyl)benzenamine]",IC50,E. coli DNA-gyrase,> 400 µM
same,inhibition of DNA-gyrase,E. coli DNA-gyrase,inhibited DNA-gyrase
same,IC50,[3],> 800 µM
"O=[N+]([O-])c1ccc(-c2ccccc2O)s1 [Compound 6d, 2-(5-nitrothiophen-2-yl)phenol]",IC50,E. coli DNA-gyrase,≥ 400 µM
same,inhibition of DNA-gyrase,E. coli DNA-gyrase,inhibited DNA-gyrase
same,adjuvant activity in association with several antibiotics,[4]; resistant isolates of E. coli and S. aureus,restored the sensitivity of the resistant isolates tested
same,concentration with bactericidal activity when used alone,"[4]; without antibiotic, all isolates",over 32 μg/mL
same,diameter of the ring of growth inhibition,MRSA TCH1516 USA300,did not change
same,"growth inhibition, disk diffusion",MRSA TCH1516 USA300,clear rings of growth inhibition
same,IC50,[3],> 800 µM
same,bactericidal or bacteriostatic,B. subtilis JH642,bactericidal rather than bacteriostatic
same,cell lysis in growing culture,B. subtilis JH642,slow bacterial lysis
"O=[N+]([O-])c1ccc(-c2cccc(O)c2)s1 [Compound 6e, 3-(5-nitrothiophen-2-yl)phenol]",IC50,E. coli DNA-gyrase,> 800 µM
same,ring of growth inhibition,MRSA TCH1516 USA300; 4 μg per disk,reduced ring of growth inhibition
same,diameter of the ring of growth inhibition,MRSA TCH1516 USA300,did not change
same,"growth inhibition, disk diffusion",MRSA TCH1516 USA300,clear rings of growth inhibition
same,IC50,[3],> 800 µM
same,bactericidal or bacteriostatic,B. subtilis JH642,bactericidal rather than bacteriostatic
same,cell lysis in growing culture,B. subtilis JH642,more rapid cell lysis and clearing of the culture
"CC(=O)c1ccc(-c2cccc(N)c2)s1 [Compound 6h, 1-(5-(3-aminophenyl)thiophen-2-yl)ethanone]",IC50,E. coli DNA-gyrase,> 800 µM
same,IC50,[3],> 800 µM
"CC(=O)c1ccc(-c2ccc(N)cc2)s1 [Compound 6i, 1-(5-(4-aminophenyl)thiophen-2-yl)ethanone]",IC50,E. coli DNA-gyrase,> 800 µM
same,IC50,[3],> 800 µM
"CC(=O)c1ccc(-c2cccc(O)c2)s1 [Compound 6k, 1-(5-(3-hydroxyphenyl)thiophen-2-yl)ethanone]",IC50,E. coli DNA-gyrase,> 400 µM
same,inhibition of DNA-gyrase,E. coli DNA-gyrase,inhibited DNA-gyrase
same,IC50,[3],> 800 µM
"COc1cccc(-c2ccc([N+](=O)[O-])s2)c1OC [Compound 6s, 2-(2,3-dimethoxyphenyl)-5-nitrothiophene]",IC50,E. coli DNA-gyrase,> 800 µM
same,IC50,[3],> 800 µM
"O=[N+]([O-])c1ccc(-c2ccc(NCCO)cc2)s1 [Compound 7c, 2-((4-(5-nitrothiophen-2-yl)phenyl)amino)ethanol]",IC50,E. coli DNA-gyrase,> 400 µM
same,inhibition of DNA-gyrase,E. coli DNA-gyrase,inhibited DNA-gyrase
same,IC50,[3],> 800 µM
"CC1COc2c(N3CCN(C)CC3)c(F)cc3c(=O)c(C(=O)O)cn1c23 (centres unmarked) [OFX, ofloxacin]",MIC,[5],0.06 µg/mL
same,MBC,[6],> 8 µg/mL
same,MIC,[6],> 8 µg/mL
same,MBC,"[6]; 144 h, read-out: MBC [with 6d]",> 8 µg/mL
same,MIC,"[6]; 144 h, read-out: MIC [with 6d]",< 0.015 µg/mL
same,bactericidal effect of the antibiotic after addition of 6d,"[6]; G02-resistant strain, with 6d",did not restore the bactericidal effect
"CC1(C)S[C@@H]2[C@H](NC(=O)Cc3ccccc3)C(=O)N2[C@H]1C(=O)O [PNG, penicillin G]",MBC,S. aureus C1BP13 (MRSA),> 8 µg/mL
same,MIC,S. aureus C1BP13 (MRSA),> 8 µg/mL
same,MBC,"S. aureus C1BP13 (MRSA); 144 h, read-out: MBC [with 6d]",4 µg/mL
same,MIC,"S. aureus C1BP13 (MRSA); 144 h, read-out: MIC [with 6d]",< 0.015 µg/mL
same,MBC,[7],> 8 µg/mL
same,MIC,[7],> 8 µg/mL
same,MBC,"[7]; 144 h, read-out: MBC [with 6d]",2 µg/mL
same,MIC,"[7]; 144 h, read-out: MIC [with 6d]",< 0.015 µg/mL
O=C(O)c1cn(C2CC2)c2cc(N3CCNCC3)c(F)cc2c1=O [ciprofloxacin],inhibition of DNA-gyrase induced supercoiling of relaxed plasmid DNA,E. coli DNA-gyrase; control at 200 μM,completely inhibited
"Cc1[nH]c(C(=O)N[C@@H]2CCN(c3ncc(C(=O)O)s3)C[C@@H]2F)c(Cl)c1Cl [pyrrolamide, 2-[(3S,4R)-4-{[(3,4-dichloro-5-methyl-1H-pyrrol-2-yl)carbonyl]amino}-3-fluoropiperidin-1-yl]-1,3-thiazole-5-carboxylic acid]",IC50,Gyrase B,0.004 µM
